Assay [1] addresses T1, Neurotensin receptor type 1 (Homo sapiens, UniProt P30989). Briefly: Displacement of [125I]Tyr3-NT from human NTS1R expressed in HT29 cells. Type of assay: cell-based, HT-29. (In general: Displacement assays read how much labelled ligand stays bound in the presence of the test substance.)
In assay [2] the target is T1, Neurotensin receptor type 1. Briefly: Displacement of [125I]Tyr3-NT from human NTS1R expressed in WiDr cells. Type of assay: cell-based.
For assay [3] the target is unchanged. Briefly: Displacement of [125I]Tyr3-NT from NTS1R in human exocrine ductal pancreatic carcinoma.

These results are taken from ChEMBL document CHEMBL1138946, “Toward stable N4-modified neurotensins for NTS1-receptor-targeted tumor imaging with 99mTc” (J Med Chem, 2006).

By IC50 is commonly meant the concentration at which inhibition is half-maximal.

Structures are written as SMILES. Starred links: 1 amine or outer side, 2 acyl side, 3 side chain; linkers in the order of their positions; H or OH if unused. Non-standard residues stand in square brackets, D forms with d. Residues, ends and D or L forms follow the SMILES beside them. Groups on a side chain read outwards from the residue. *: point of attachment. X1 = NC(N)=NCCCC(CN([C@@H](CCCN=C(N)N)C(=O)[*:2])[*:1])N[*:3]; X3 = NCCCCC(CN([C@@H](CCCN=C(N)N)C(=O)[*:2])[*:1])N[*:3]; Tle = CC(C)(C)[C@H](N)C(=O)O; X2 = NCCNCC(CNCCN)C(=O)*

T1 sequence (P30989 whole entry): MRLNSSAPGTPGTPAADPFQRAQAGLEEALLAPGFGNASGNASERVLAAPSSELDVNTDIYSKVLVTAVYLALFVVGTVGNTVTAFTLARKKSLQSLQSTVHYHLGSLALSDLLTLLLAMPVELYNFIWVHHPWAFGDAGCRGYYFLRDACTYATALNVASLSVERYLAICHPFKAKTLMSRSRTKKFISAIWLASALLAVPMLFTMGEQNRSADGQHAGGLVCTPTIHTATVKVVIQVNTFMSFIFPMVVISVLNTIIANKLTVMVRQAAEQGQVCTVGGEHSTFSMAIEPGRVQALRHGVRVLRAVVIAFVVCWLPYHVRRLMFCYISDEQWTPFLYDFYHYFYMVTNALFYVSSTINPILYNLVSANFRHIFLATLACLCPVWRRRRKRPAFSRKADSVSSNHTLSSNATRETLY

Molecule `CC[C@H](C)[C@H](NC(=O)[C@H](Cc1ccc(O)cc1)NC(=O)[C@@H]1CCCN1C(=O)[C@H](CCCN=C(N)N)NC(=O)[C@H](CCCN=C(N)N)NC(=O)CNC(=O)C(CNCCN)CNCCN)C(=O)N[C@@H](CC(C)C)C(=O)O` [Demotensin 1] (X2-GRRPYIL-OH) yielded an IC50 in assay [1] of 0.32 nM.
With `CC[C@H](C)[C@H](NC(=O)[C@H](Cc1ccc(O)cc1)NC(=O)[C@@H]1CCCN1C(=O)[C@H](CCCN=C(N)N)NCC(CCCCN)NC(=O)CNC(=O)C(CNCCN)CNCCN)C(=O)N[C@@H](CC(C)C)C(=O)O` (stereo partly drawn) [DEMOTENSIN 2] (H-[X3]([Gly-X2])PYIL-OH), the IC50 in assay [2] is 0.18 nM; in assay [1], 0.41 nM.
Consider `CC(C)C[C@H](NC(=O)[C@@H](NC(=O)[C@H](Cc1ccc(O)cc1)NC(=O)[C@@H]1CCCN1C(=O)[C@H](CCCN=C(N)N)NCC(CCCCN)NC(=O)CNC(=O)C(CNCCN)CNCCN)C(C)(C)C)C(=O)O` (stereo partly drawn) [DEMOTENSIN 3] (H-[X3]([Gly-X2])PY[Tle]L-OH), for which the IC50 in assay [2] is 0.66 nM; in assay [1] it was 1.5 nM.
In the case of `CC(C)C[C@H](NC(=O)[C@@H](NC(=O)[C@H](Cc1ccc(O)cc1)NC(=O)[C@@H]1CCCN1C(=O)[C@H](CCCN=C(N)N)NCC(CCCN=C(N)N)NC(=O)CNC(=O)C(CNCCN)CNCCN)C(C)(C)C)C(=O)O` (stereo partly drawn) [DEMOTENSIN 4] (H-[X1]([Gly-X2])PY[Tle]L-OH), the IC50 in assay [2] turned out to be 0.51 nM; in assay [1], 0.85 nM; in assay [3], 2.9 nM.
